Reference: patent publication US11787849B2, “Methods and compounds for eliminating immune responses to therapeutic agents” (IMCYSE SA, priority 2015, dated 2023)

What was measured:
CD4+ T cells [1] = test: Vaccination with peptide (redox motif + epitope) adsorbed on aluminum hydroxide, SC: induction of cytolytic CD4+ T cells; assay type: in vivo, human
Text: A vaccination strategy making use of a mixture of two peptides encompassing the minimal binding sequence of class II-restricted epitopes and a thioreductase motif is therefore established.
Administration of a mixture of these two peptides adsorbed on aluminum hydroxide elicits specific CD4+ T cells with cytolytic properties.
Patients in need for EPO injection are vaccinated by administration of peptide [SEQ ID NO:18] using a standard procedure of peptide adsorbed on aluminum hydroxide and administered by SC injection.
Patients affected by Fabry disease are immunized with peptide of SEQ ID NO:21, using a standard procedure of peptide adsorbed on aluminium hydroxide and administered by SC injection.
The mammalian expression vector pCMV with cytomegalovirus promotor is engineered to allow the expression in CHO (Chinese hamster ovary) cells of any protein for replacement therapy, in fusion with the promiscuous CLIP-derived epitope described in example 2 [SEQ ID NO:17]. Patients in need for injection with a protein for replacement therapy are first vaccinated by administration of a peptide comprising a thioreductase motif and the modified CLIP-derived epitope described in example 2 [SEQ ID NO:18].

CD4+ T cells [2] = conditions: peptide adsorbed on aluminum hydroxide, SC injection; known from WO200817517; cited from earlier work
cytolytic CD4+ T cells = test: Administration of epitope-tagged therapeutic protein to a previously vaccinated / cell-treated individual: activation of cytolytic CD4+ T cells and immune response to the protein; assay type: in vivo, human; conditions: individual pretreated with the matching redox-motif peptide or with autologous cells activated by it
Text: Recombinant alpha-galactosidase can be modified as to contain the sequence of a class II-restricted promiscuous T cell epitope added at the amino-terminal end of the molecule.
The promiscuous nature of the CLIP-modified epitope makes it possible to use the same vaccine and the same EPO molecule for any patient in need of such therapy, regardless of its HLA profile.

CPYC-LF-LKSDGRVKYTLN (CPYCLFLKSDGRVKYTLN; CxxC + redox motif apolipoprotein B-100 epitope) [SEQ ID NO:21]
elicitation of specific CD4+ T cells with cytolytic properties (CD4+ T cells [1]): Epitope-specific cytolytic CD4+ T cells are then produced

CPYC-VR-FFMATRLLMQAL (CPYCVRFFMATRLLMQAL; CxxC redox motif + modified clip peptide) [SEQ ID NO:18]
elicitation of epitope-specific cytolytic CD4+ T cells (CD4+ T cells [2]): elicit epitope-specific cytolytic CD4+ T cells

B1: modified alpha-galactosidase: recombinant alpha-galactosidase modified to contain the LFLKSDGRVKYTLN promiscuous epitope (protein)
chain: LFLKSDGRVKYTLNDNGLARTPTMGWLHWERFMCNLDCQEEPDSCISEKLFMEMAELMVSEGWKDAGYEYLCIDDCWMAPQRDSEGRLQADPQRFPHGIRQLANYVHSKGLKLGIYADVGNKTCAGFPGSFGYYDIDAQTFADWGVDLLKFDGCYCDSLENLADGYKHMSLALNRTGRSIVYSCEWPLYMWPFQKPNYTEIRQYCNHWRNFADIDDSWKSIKSILDWTSFNQERIVDVAGPGGWNDPDMLVIGNFGLSWNQQVTQMALWAIMAAPLFMSNDLRHISPQAKALLQDKDVIAINQDPLGKQGYQLRQGDNFEVWERPLSGLAWAVAMINRQEIGGPRSYTIAVASLGKGVACNPACFITQLLPVKRKLGFYEWTSRLRSHINPTGTVLLQLENTMQMSLKDLL
modifications: apolipoprotein B-100 epitope + alpha galactosidase
immune response towards the therapeutic protein (cytolytic CD4+ T cells): does not elicit an immune response to alpha-galactosidase
